From patent publication US6673376B1, “Method of preparing a solution, in particular a dialysis or infusion solution” (Fresenius Medical Care Deutschland GmbH, priority 1998, dated 2004)
“And” between values parts separate entries of the source, which are not always exact repeats. Identical values can stand only once. Like-named read-outs stand apart in the source and are kept apart here.

Key:
[1] = for pH of finished solution: 1st-3rd test
Excerpt: This concentrate was then mixed with a 1 molar sodium bi-carbonate solution and diluted with the stated amount of water.

[2] = Dissolving rate (time until solution is clear) of succinic acid and succinic acid-NaHCO3 adduct; format: physicochemical; settings: for Time until solution is clear: three runs
Protocol: This solution is stirred and heated briefly until all the solids have dissolved. Then the solution is dried to constant weight (for approximately 48 hours) at approximately 105° C. in a drying oven. The product, which forms amorphous crystals, is homogenized in a mortar.

[3] = 12.98 g/L, 0.11 mol/l, concentrate 0.22 meq/L
[4] = 19.47 g/L, 0.165 mol/l, concentrate 0.33 meq/L
[5] = 25.96 g/L, 0.22 mol/L, concentrate 0.44 meq/L
[6] = 38.94 g/L, 0.33 mol/L, concentrate 0.66 meq/L
[7] = 58.11 g/L, 0.495 mol/L, concentrate 0.99 meq/L

pH of finished solution ([1]; 35 mL 1 molar NaHCO3, 951 mL water, 14 mL 0.15 molar succinic acid): 7.08 and 7.09
pH of finished solution ([1]; 35 mL 1 molar NaHCO3, 953 mL water, 12 mL 0.15 molar succinic acid): 7.16 and 7.17
pH of finished solution ([1]; 35 mL 1 molar NaHCO3, 955 mL water, 10 mL 0.15 molar succinic acid): 7.26 and 7.27
pH of finished solution ([1]; 35 mL 1 molar NaHCO3, 957 mL water, 8 mL 0.15 molar succinic acid): 7.42 and 7.39 and 7.41
pH of finished solution ([1]; 40 mL 1 molar NaHCO3, 946 mL water, 14 mL 0.15 molar succinic acid): 7.14 and 7.16 and 7.19
pH of finished solution ([1]; 40 mL 1 molar NaHCO3, 948 mL water, 12 mL 0.15 molar succinic acid): 7.24 and 7.25
pH of finished solution ([1]; 40 mL 1 molar NaHCO3, 950 mL water, 10 mL 0.15 molar succinic acid): 7.34 and 7.35 and 7.32
pH of finished solution ([1]; 40 mL 1 molar NaHCO3, 952 mL water, 8 mL 0.15 molar succinic acid): 7.46 and 7.47 and 7.48
concentration sufficient to adjust a physiological pH ([1]; in terms of the finished ready-to-use solution, relatively high sodium bicarbonate concentration): 1.5 mmol/L
Time until solution is clear, Average [2, 3]: 210
Time until solution is clear [2, 3]: 200 and 210 and 220
Time until solution is clear, Average [2, 4]: 250
Time until solution is clear [2, 4]: 230 and 250 and 270
Time until solution is clear, Average [2, 5]: 358
Time until solution is clear [2, 5]: 400 and 375 and 300
Time until solution is clear, Average [2, 6]: 460
Time until solution is clear [2, 6]: 510 and 420 and 450
Time until solution is clear, Average [2, 7]: >900
Time until solution is clear [2, 7]: 900 and >1080 and 960
dissolution rate ([2]; in water, in words): very low
SMILES: O=C(O)CCC(=O)O [succinic acid]
